Experimental data published in patent US6624119B1, “3-[Benz(ox/thi)azol-7-yl]-1h-pyrimidine-2,4-diones” (BASF Aktiengesellschaft, priority 1998, dated 2003).

Tests used:
Test in all cases: greenhouse herbicidal test, post-emergence
Format in all cases: in vivo
[1] = system: Abutilon theophrasti; conditions: Abutilon theophrasti (velvet leaf), application rates 15.6 or 7.8 kg/ha a.s., 2 to 4 weeks
From the text: (§1) The growing containers used were plastic pots containing loamy sand with approximately 3.0% of humus as the substrate. The seeds of the test plants were sown separately for each species.
(§2) For the post-emergence treatment, the test plants were first grown to a plant height of 3 to 15 cm, depending on the growth habit, and only then treated with the active ingredients which had been suspended or emulsified in water. The test plants were either sown directly and grown in the same containers or first grown separately as seedlings and transplanted into the test containers a few days prior to treatment. The rate of application for the post-emergence treatment was only 15.6 or […] of a.s. (active substance).
(§3) Depending on the species, the plants were kept at 10-25° C. or 20-35° C. The test period extended over 2 to 4 weeks. During this time, the plants were tended, and their response to the individual treatments was evaluated.
(§4) Evaluation was carried out using a scale from 0 to 100. 100 means no emergence of the plants or complete destruction of at least the aerial parts, and 0 means no damage or normal course of growth.
(§5) The plants used in the greenhouse experiments belonged to the following species: […]

[2] = system: Amaranthus retroflexus; conditions: Amaranthus retroflexus (redroot pigweed), application rates 15.6 or 7.8 kg/ha a.s., 2 to 4 weeks
From the text: as §1, §2, §3, §4, §5

[3] = system: Chenopodium album; conditions: Chenopodium album (lambsquarters), application rates 15.6 or 7.8 kg/ha a.s., 2 to 4 weeks
From the text: as §1, §2, §3, §4, §5

[4] = system: Solanum nigrum; conditions: Solanum nigrum (black nightshade), application rates 15.6 or 7.8 kg/ha a.s., 2 to 4 weeks
From the text: as §1, §2, §3, §4, §5

Measured: efficacy (complete destruction; scale 0 to 100)

Cn1c(C(F)(F)F)cc(=O)n(-c2c(F)cc(Cl)c3nc(C4CCCC4)oc23)c1=O [Ia.3, 3-[4-Chloro-2-cyclopentyl-6-fluorobenzoxazol-7-yl]-1-methyl-6-trifluoromethyl-2,4-(1H,3H)-pyrimidinedione]
100%: all assays above
